Results as given in patent publication US12600705B2, “Heat shock protein modulators and anti-Huntington disease therapeutic agents” (UNIVERSITY OF PITTSBURGH-OF THE COMMONWEALTH SYSTEM OF …, priority 2020, dated 2026).

Key:
HDAC 7 = target: T1, HDAC 7 (Homo sapiens, UniProt Q8WUI4); assay: HDAC 7 assay (BPS Bioscience kit)
T1 sequence (Q8WUI4 1-952): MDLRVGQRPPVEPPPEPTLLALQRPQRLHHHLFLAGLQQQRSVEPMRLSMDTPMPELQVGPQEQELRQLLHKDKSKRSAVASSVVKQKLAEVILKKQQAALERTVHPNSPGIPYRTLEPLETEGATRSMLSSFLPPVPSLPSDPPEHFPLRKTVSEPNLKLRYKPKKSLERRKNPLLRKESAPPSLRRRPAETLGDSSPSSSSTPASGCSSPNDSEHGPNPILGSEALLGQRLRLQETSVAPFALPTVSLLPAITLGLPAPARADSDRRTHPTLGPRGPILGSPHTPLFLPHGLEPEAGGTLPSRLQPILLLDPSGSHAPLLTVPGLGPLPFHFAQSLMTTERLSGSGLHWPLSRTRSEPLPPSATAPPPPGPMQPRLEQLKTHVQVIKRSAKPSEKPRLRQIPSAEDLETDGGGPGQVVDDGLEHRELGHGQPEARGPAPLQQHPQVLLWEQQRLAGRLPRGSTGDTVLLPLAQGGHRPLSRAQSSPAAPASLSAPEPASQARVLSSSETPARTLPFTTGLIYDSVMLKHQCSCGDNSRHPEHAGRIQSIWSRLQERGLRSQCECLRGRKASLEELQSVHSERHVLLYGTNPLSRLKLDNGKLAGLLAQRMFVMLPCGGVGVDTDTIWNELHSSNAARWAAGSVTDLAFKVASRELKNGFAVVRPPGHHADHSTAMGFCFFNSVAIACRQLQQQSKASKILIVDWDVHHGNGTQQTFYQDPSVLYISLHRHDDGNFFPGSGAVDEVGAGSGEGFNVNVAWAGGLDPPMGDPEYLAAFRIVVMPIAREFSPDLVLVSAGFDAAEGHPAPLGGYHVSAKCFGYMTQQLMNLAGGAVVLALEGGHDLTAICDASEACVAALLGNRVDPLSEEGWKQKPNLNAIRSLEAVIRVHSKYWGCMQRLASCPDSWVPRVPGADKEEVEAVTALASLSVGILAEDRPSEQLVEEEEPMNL
Method: (§1) For HDAC 4-8 assays, kits from BPS Bioscience (https://bpsbioscience.com/) were used and their recommended protocols followed. […] Each compound was dissolved in DMSO to generate a 100 μM stock solution, then diluted using HPLC-grade water to prepare 10 μM, 2 μM, and 1 μM solutions. These solutions were used for the assays. […] Assays utilized a BioTek Synergy H1 microplate reader and black Nunc MicroWell 96-well optical-bottom plates with polymer base.
(§2) HDAC 4 (and, by analogy, HDAC 5, 6, 7, and 8): 40 μL of the parent solution was added to each well on the plate. The parent solution was prepared from a fluorogenic HDAC substrate, a 1 mg/mL solution of bovine serum albumin (BSA) in water, and HDAC assay buffer. 5 μL of the inhibitor buffer (10% DMSO in water) was added to the wells designated as “Blank” and “Positive Control” (no inhibitor). 5 μL of the test compound was added to each well designated as “Test Inhibitor”. Different concentrations of TSA (for a standard curve) was added to each well designated as “Standard.” 5 μL of HDAC assay buffer was added to the “Blank” wells. […] Afterwards, the plate was analyzed using a BioTek Synergy H1 microplate reader, taking two independent readings per well that were subsequently averaged.

[1] = target: HDAC 4 human recombinant enzyme (Homo sapiens, UniProt P56524); assay: HDAC 4 assay (BPS Bioscience kit); conditions: Compound tested at 1 uM
Chain of HDAC 4 human recombinant enzyme (P56524 whole entry): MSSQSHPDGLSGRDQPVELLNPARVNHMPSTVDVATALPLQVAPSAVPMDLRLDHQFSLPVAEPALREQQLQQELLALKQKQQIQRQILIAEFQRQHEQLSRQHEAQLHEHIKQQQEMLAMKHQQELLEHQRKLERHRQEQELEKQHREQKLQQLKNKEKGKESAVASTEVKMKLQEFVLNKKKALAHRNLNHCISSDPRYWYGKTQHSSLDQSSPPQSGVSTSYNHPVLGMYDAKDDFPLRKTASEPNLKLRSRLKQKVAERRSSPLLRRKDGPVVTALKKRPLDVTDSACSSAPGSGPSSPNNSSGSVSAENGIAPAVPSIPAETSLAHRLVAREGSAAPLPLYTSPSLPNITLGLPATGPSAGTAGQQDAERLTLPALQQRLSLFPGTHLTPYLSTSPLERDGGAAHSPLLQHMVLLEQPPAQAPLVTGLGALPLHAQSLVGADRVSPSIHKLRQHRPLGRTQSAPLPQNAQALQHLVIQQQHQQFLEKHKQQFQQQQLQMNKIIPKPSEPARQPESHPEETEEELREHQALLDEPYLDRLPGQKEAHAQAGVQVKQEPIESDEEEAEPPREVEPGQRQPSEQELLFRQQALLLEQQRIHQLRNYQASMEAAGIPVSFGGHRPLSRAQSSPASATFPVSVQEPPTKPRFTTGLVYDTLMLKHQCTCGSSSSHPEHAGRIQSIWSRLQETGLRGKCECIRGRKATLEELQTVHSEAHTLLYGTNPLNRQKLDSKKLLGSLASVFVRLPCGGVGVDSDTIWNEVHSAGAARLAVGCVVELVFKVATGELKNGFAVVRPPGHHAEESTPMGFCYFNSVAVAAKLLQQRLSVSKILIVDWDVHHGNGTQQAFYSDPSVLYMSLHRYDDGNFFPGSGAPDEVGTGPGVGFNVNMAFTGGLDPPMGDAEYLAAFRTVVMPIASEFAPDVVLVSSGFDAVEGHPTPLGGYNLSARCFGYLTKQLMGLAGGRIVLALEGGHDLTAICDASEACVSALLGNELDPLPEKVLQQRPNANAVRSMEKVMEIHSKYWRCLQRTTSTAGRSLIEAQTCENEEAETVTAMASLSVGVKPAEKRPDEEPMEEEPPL
Method: as §1, §2

HDAC 8 = target: T2, HDAC 8 (Homo sapiens, UniProt Q9BY41); assay: HDAC 8 assay (BPS Bioscience kit); conditions: for Percent inhibition HDAC 8: footnotes a,c: tested at 1 uM, 100 nM, average of 2 independent measurements
T2 sequence (Q9BY41 1-377): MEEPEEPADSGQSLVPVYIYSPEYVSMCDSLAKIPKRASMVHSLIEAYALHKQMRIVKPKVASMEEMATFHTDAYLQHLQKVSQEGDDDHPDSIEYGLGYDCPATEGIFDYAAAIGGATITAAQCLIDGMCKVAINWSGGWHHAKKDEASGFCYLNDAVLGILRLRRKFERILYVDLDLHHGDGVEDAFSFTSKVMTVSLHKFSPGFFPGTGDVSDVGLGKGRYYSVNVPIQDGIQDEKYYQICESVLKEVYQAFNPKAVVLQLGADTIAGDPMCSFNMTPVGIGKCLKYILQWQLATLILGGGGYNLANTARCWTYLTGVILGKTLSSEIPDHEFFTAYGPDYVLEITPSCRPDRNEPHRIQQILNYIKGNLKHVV
Method: as §1
(§3) HDAC 4 (and, by analogy, HDAC 5, 6, 7, and 8): 40 μL of the parent solution was added to each well on the plate. The parent solution was prepared from a fluorogenic HDAC substrate, a 1 mg/mL solution of bovine serum albumin (BSA) in water, and HDAC assay buffer. 5 μL of the inhibitor buffer (10% DMSO in water) was added to the wells designated as “Blank” and “Positive Control” (no inhibitor). 5 μL of the test compound was added to each well designated as “Test Inhibitor”. Different concentrations of TSA (for a standard curve) was added to each well designated as “Standard.” 5 μL of HDAC assay buffer was added to the “Blank” wells. Then, 5 μL of HDAC 4 human recombinant enzyme was added to the wells designated as “Positive Control”, “Test Inhibitor”, and “Standard.” The plate was then warmed in an incubator at 37° C. with a rocker platform for 30 min After the incubation, 50 μL of 2×HDAC Developer solution was added to each well. The plate was returned to the incubator and was shaken on the rocker for an additional 15 min. at room temperature. Afterwards, the plate was analyzed using a BioTek Synergy H1 microplate reader, taking two independent readings per well that were subsequently averaged.

HDAC 5 = HDAC 5 (Homo sapiens, UniProt Q9UQL6); assay: HDAC 5 assay (BPS Bioscience kit)
Chain of HDAC 5 (Q9UQL6 whole entry): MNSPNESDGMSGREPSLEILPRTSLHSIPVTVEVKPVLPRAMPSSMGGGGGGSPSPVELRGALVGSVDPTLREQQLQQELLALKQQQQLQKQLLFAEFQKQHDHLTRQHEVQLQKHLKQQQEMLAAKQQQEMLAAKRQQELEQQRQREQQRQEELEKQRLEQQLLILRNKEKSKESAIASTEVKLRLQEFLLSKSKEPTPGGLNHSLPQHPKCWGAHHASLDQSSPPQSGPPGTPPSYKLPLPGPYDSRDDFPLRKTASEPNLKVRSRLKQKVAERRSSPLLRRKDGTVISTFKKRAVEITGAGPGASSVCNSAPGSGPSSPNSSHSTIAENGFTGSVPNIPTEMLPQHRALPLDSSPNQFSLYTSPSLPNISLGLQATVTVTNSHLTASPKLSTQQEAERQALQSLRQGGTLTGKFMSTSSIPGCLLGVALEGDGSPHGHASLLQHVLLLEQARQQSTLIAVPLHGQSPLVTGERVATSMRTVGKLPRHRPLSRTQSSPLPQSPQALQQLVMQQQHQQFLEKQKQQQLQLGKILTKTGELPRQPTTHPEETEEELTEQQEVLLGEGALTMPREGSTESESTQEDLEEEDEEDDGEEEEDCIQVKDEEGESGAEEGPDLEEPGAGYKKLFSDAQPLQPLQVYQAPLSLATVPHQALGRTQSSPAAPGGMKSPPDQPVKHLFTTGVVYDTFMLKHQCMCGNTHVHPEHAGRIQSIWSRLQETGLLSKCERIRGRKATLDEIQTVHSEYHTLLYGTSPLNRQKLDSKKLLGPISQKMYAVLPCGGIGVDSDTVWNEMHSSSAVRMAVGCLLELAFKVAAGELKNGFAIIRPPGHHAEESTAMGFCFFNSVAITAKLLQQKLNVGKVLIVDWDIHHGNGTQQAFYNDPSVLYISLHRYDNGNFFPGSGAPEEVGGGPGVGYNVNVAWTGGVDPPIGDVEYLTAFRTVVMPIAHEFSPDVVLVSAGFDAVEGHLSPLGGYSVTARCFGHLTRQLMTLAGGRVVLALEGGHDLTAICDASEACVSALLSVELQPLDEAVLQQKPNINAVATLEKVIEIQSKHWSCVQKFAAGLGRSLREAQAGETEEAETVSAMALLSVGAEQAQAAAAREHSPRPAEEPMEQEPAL
Method: as §1, §2

HDAC 1-3 = HDAC 1-3 assay (BioVision kit, HeLa nuclear extract); conditions: Compound tested at 1 uM
Method: For HDAC 1-3 assays, kits from BioVision Incorporated (https://www.biovision.com/) were used and their recommended protocols followed. […] Each compound was dissolved in DMSO to generate a 100 μM stock solution, then diluted using HPLC-grade water to prepare 10 μM, 2 μM, and 1 μM solutions. These solutions were used for the assays. […] Assays utilized a BioTek Synergy H1 microplate reader and black Nunc MicroWell 96-well optical-bottom plates with polymer base.
HDAC 1-3: 10 μL of each diluted compound (10 μM) and 40 μL of HPLC-grade water were mixed and added into a well on the plate. […] Then, 50 μL of the reaction mixture was added to each well and the solution was mixed thoroughly. The reaction mixture consisted of 500 μL of 10×HDAC Assay buffer, 100 μL of HeLa nuclear extract, 250 μL of HDAC substrate, and 1.65 mL of HPLC-grade water. The plate was then warmed in an incubator at 37° C. with a rocker platform and was incubated for 30 min. After the incubation, 10 μL of Lysine Developer solution was added to each well. The plate was kept in the incubator for an additional 30 min. Afterwards, the plate was analyzed using a BioTek Synergy H1 microplate reader, taking two independent readings per well that were subsequently averaged.

[2] = tested on: HEK293 cells that express an HTT exon containing 17 glutamine repeats (HTT17Q-mCherry); assay: Huntington's Disease (HD) model: protein aggregates (puncta) per cell in HEK293H cells transfected with HTT17Q-mCherry; conditions: for Effect on aggregate suppression compared to the MAL1-271 positive control: Example 1, FIG. 2, 10 μM compound, 6 h; for Activity in cell based HD assay (active analogs of Hsp70 agonist): summary of Example 1
Method: Cells were stained for confocal microscope imaging with 4′,6-diamidino-2-phenylindole (DAPI), a fluorescent dye with high affinity to adenine-thymine rich DNA regions. A bright spot detection tool was used to identify and quantify the number of protein aggregates (“dots”) per cell.
Biological Assays: For HD assays, HEK293H cells were grown in DMEM (Sigma-Aldrich, Saint Louis, MO) supplemented with 10% fetal bovine serum (GE Healthcare Hyclone) and 1% penicillin/streptomycin (Thermo Fisher Scientific, Waltham, MA) at 37° C. and at a 5% CO2 atmosphere. Cells were seeded at 250,000 cells/plate in Poly-D-Lysine Coated 35 mm MatTek dishes (P35GC-1.5-10-C, MatTek Corporation, Ashland, MA). After 24 h growth, a total of 4 μg of mCherry tagged-polyglutamine-expanded (17-polyQ-expanded) huntingtin (HTT) was introduced using Lipofectamine 2000 (Invitrogen, Thermo Fisher Scientific) according to the manufacturer's instructions. […] The following day, cells were treated with vehicle (DMSO) as control or with 10 μM of the examined compounds for 6 h. The cells were then washed with PBS and fixed in 4% formaldehyde for 15 min at room temperature. Finally, cells were stained with DAPI (1:250 in PBS) for 4 h and maintained in PBS for confocal microscope imaging.
Complete volumes of cells were acquired at 0.5-μm steps, and volumes were reconstructed and analyzed using Nikon's NIS-Elements software (Nikon Instrument, Melville, NY). Bright spot detection tool was used to identify and quantify the number of protein aggregates (“dots”) per cell. A non-parametric Kruskal-Wallis test analysis was performed using Prism software (GraphPad, La Jolla, CA). Statistically significant differences between control (DMSO) and compound treated samples are indicated by asterisks in figure. To obtain representative images from this experiment, maximum intensity projections of 0.5-μm steps though the entire cell were generated using Nikon's NIS-Elements software.
Cells were stained for confocal microscope imaging with 4′,6-diamidino-2-phenylindole (DAPI) and bright spot detection tool was used to identify and quantify the number of protein aggregates (“dots”) per cell.

HDAC 6 = target: T3, HDAC 6 (Homo sapiens, UniProt Q9UBN7); assay: HDAC 6 assay (BPS Bioscience kit); conditions: for Percent inhibition HDAC 6: footnotes b,c: tested at 200 nM, 100 nM, variable, average of 2 independent measurements
T3 sequence (Q9UBN7 1-1215): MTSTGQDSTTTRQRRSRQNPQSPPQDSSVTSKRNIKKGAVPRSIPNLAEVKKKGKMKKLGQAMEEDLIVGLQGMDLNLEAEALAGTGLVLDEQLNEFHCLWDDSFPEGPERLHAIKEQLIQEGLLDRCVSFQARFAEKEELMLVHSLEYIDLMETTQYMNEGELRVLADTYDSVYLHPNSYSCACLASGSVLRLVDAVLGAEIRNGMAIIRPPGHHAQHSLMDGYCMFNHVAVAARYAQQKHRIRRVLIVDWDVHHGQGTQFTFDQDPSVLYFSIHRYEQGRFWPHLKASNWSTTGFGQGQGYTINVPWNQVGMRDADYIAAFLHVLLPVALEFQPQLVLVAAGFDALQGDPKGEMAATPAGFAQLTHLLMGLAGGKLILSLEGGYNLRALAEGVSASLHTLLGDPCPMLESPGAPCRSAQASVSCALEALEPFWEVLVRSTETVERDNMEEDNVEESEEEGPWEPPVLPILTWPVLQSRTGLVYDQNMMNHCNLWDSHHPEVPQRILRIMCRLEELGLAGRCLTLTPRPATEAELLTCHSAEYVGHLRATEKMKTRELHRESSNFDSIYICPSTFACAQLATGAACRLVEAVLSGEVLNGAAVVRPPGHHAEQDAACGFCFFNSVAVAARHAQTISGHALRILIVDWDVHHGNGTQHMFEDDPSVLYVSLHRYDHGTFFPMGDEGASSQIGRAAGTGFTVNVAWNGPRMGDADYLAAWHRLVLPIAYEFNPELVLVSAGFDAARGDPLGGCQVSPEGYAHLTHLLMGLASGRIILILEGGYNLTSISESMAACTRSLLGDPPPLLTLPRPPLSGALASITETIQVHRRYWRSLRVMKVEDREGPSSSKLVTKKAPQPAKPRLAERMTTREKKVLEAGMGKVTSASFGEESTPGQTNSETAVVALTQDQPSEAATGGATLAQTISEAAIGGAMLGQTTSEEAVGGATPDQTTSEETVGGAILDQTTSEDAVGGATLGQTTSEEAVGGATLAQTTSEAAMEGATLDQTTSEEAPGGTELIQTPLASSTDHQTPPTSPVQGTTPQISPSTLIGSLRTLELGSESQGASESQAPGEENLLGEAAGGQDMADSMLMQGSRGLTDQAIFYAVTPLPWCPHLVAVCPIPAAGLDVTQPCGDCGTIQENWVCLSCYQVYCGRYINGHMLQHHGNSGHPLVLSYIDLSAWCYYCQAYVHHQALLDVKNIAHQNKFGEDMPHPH
Method: as §1, §3

| Compound | inhibition at 0.1 µM (HDAC 7; read-out: Percent inhibition HDAC 7) | Percent inhibition HDAC 4 [1] | Percent inhibition HDAC 8 (HDAC 8) | Percent inhibition HDAC 5 (HDAC 5; Compound tested at 200 nM) | Percent inhibition HDAC 1-3 (HDAC 1-3) | Effect on aggregate suppression compared to the MAL1-271 positive control [2] | Activity in cell based HD assay (active analogs of Hsp70 agonist) [2] | Percent inhibition HDAC 6 (HDAC 6) | Percent inhibition HDAC 7 (HDAC 7; Compound tested at 100 nM) | inhibition at 0.2 µM (HDAC 5; read-out: Percent inhibition HDAC 5) | inhibition at 0.05 µM (HDAC 8; read-out: Percent Inhibition) | inhibition at 0.2 µM (HDAC 8; read-out: Percent Inhibition) | inhibition at 1 µM (HDAC 8; read-out: Percent Inhibition) | inhibition at 2 µM (HDAC 8; read-out: Percent Inhibition) | inhibition at 5 µM (HDAC 8; read-out: Percent Inhibition) | inhibition at 0.001 µM (HDAC 6; read-out: Percent Inhibition) | inhibition at 0.005 µM (HDAC 6; read-out: Percent Inhibition) | inhibition at 0.01 µM (HDAC 6; read-out: Percent Inhibition) | inhibition at 0.5 µM (HDAC 6; read-out: Percent Inhibition) |
| --- | --- | --- | --- | --- | --- | --- | --- | --- | --- | --- | --- | --- | --- | --- | --- | --- | --- | --- | --- |
| COC(=O)CCCN1C=C(C(=O)O)C(c2ccc(Cl)cc2Cl)NS1(=O)=O (stereo not shown) [Compound 10g, 3-(2,4-Dichlorophenyl)-6-(4-methoxy-4-oxobutyl)-3,6-dihydro-2H-1,2,6-thiadiazine-4-carboxylic acid 1,1-dioxide] | 1% | NIA | 60%^e | NIA | NIA | equally effective | active | NIA | – | – | – | – | – | – | – | – | – | – | – |
| CCOC(=O)C1=CNS(=O)(=O)N(Cc2ccc(C(=O)O)cc2)C1c1ccc(Cl)cc1Cl (stereo not shown) [Compound 10i, 4-((3-(2,4-Dichlorophenyl)-4-(ethoxycarbonyl)-1,1-dioxido-3,6-dihydro-2H-1,2,6-thiadiazin-2-yl)methyl)benzoic acid] | – | NIA | 37%^e | – | NIA | equally effective | active | 40%^d | NIA | 9% | – | – | – | – | – | – | – | – | – |
| O=C(CCCCCCC(=O)Nc1ccccc1)NO [SAHA, Vorinostat] | – | – | – | – | – | – | – | – | – | – | 54% | 67% | 70% | 86% | 96% | 6% | 25% | 47% | 94% |
